Tests used:
[1] = ATP infusions in patients with chronic fatigue syndrome (double-blind); format: in vivo, human
Experimental: Patients with different diseases received infusions of 10-75 μg/kg·min over 8-24 h, at intervals of 1-4 weeks in different randomized clinical trials. In all cases, the first. infusion was given under clinical supervision, subsequent infusions were given in the setting of private homes. Preliminary results in small numbers of patients with persistent rheumatoid arthritis, chronic fatigue syndrome, and cancer in the pre-terminal stage, and lung cancer during curative radiotherapy are given below.
In a double-blind design, 8 out of 9 patients with chronic fatigue syndrome who had been treated with ATP (8 infusions of 24 h), spontaneously reported the following unexpected beneficial effects of ATP infusion: • less pain on the day after the infusion • feeling better during the 8-week infusion period than before or afterwards • more physical energy on the day after the infusion • felt better during the complete infusion period: less pain, better performance status, happier, mentally stronger, less tired, sleeping better • fewer ulcers during the infusion period • feeling less weak/feeble on the day after the infusion, feeling muscles “in a positive sense” In 5 out of 9 patients, these effects were already noted on the day after the first ATP infusion. […] In the placebo group, not even one out of 9 patients spontaneously reported any of such improvements.

[2] = previous study, ATP infusion during 30 hrs; cited from earlier work
IL-10 = assay: LPS+PHA-induced IL-10 secretion in whole blood from healthy subjects (ELISA); format: cell-based, human; conditions: indicated ATP concentrations, 24 h
Experimental: FIG. 8 Effect of ATP on LPS+PHA-induced IL-10 secretion in whole blood from healthy subjects. The whole blood was exposed to 10 μg/ml LPS and 1 μg/ml PHA with indicated concentrations of ATP for 24 h. The IL-10 released into the supernatants was analyzed using the ELISA method. Results are expressed in percentage, 100% being the IL-10 release under stimulation by LPS+PHA without ATP. […] Data are expressed as the mean values; error bars represent SEM. *, different from control (stimulation by LPS+PHA without ATP) (P<0.05).
Blood was collected from 8 healthy subjects in heparin containing vacutainer tubes. All incubations were performed in duplicate. ATP was dissolved in RPMI 1640 culture medium, at a final concentration of 1-300 μM, and blood pre-incubated with ATP at 5% CO2 at 37 DC for 30 min. After stimulation with LPS en PHA (10 and 1 μg/ml final concentration, respectively), the plates were incubated in 5% CO2 at 37° C. for 24 h. Cell-free supernatant fluids were then collected by centrifugation (6000 rpm, 10 min at 4° C.) and stored at −20° C. until tested for presence of cytokines. All cytokines were quantified by means of PeliKine Compact human ELISA kits (CLB/Sanquin, The Netherlands), based on appropriate and validated sets of monoclonal antibodies.
Whole blood was collected and stimulated with LPS+PHA as described for Experiment 2. […]

TNF-α/IL-10 ratio [3] = assay: TNF-α/IL-10 ratio in whole blood from patients with oxidative stress-related diseases; format: cell-based, human; conditions: for reduction in the TNF-α/IL-10 ratio: 300 μM ATP
Experimental: (§1) FIG. 15 Effect of ATP on the ratio of TNF-α/IL-10 secretion in whole blood from a patient with oxidative stress-related disease. […] In both experiments, TNF-α and IL-10 released into the supernatants was analyzed using the ELISA method. Results are expressed in percentage, 100% being the TNF-α/IL-10 ratio without ATP (control).
as §1, with “16” for “15”, “(control). Both in untreated and in LPS-PHA stimulated blood, the ratio of TNF-α/IL-10 release from whole blood was reduced by the addition of ATP.” for “(control).”
FIG. 17 Effect of ATP on the ratio of TNF-α/IL-10 secretion in whole blood from a patient with oxidative stress-related disease. […] TNF-α and IL-10 released into the supernatants was analyzed using the ELISA method. Results are expressed in percentage, 100% being the TNF-α/IL-10 ratio without ATP (control). The ratio of TNF-α/IL-10 release from whole blood was reduced by the addition of ATP.
This experiment was performed to test the effects of ATP ex vivo in whole blood collected from patients with oxidative stress-related diseases, both without and with LPS+PHA stimulation of cytokine production. Whole blood from 3 patients with different oxidative stress-related diseases was collected as described for experiment 2, and incubated for 24 hours at 5% CO2 and 37° C., with ATP added at a final concentration 300 μM, or no ATP (control). Cytokine production was measured as in Experiment 2. Results were expressed as the TNF-α/IL-10 ratio relative to the control condition (no ATP).

[4] = cited from earlier work
TNF-α/IL-10 ratio [5] = assay: TNF-α/IL-10 ratio in whole blood incubated with H2O2 without LPS+PHA; format: cell-based, human; conditions: 300 μM ATP, 5 mM H2O2, no LPS+PHA
Experimental: FIG. 14 Effect of ATP on cytokine secretion in whole blood under conditions of oxidative stress. Blood was pre-incubated with ATP or no ATP (control) for 30 min, followed by incubation with H2O2 (5 mM) or 24 h, without addition of LPS+PHA. The TNF-α and IL-10 released into the supernatant was analyzed using the ELISA method. Results are expressed in percentage, 100% being the TNF-α/IL-10 ratio when blood was incubated with H2O2 only, but no ATP (control). The TNF-alpha/IL-10 ratio was reduced by ATP in a concentration-dependent manner, with a 90% reduction at 300 μM ATP, indicating inhibition of inflammatory response.
This experiment was performed to test the effects of ATP under circumstances of oxidative stress in healthy subjects, but without LPS-PHA induced stimulation of cytokine production. Whole blood was collected as described for experiment 2, and was pre-incubated with ATP at final concentrations of 100-300 μM, or no ATP (control), for 30 min. Then, blood was incubated with H2O2 (5 mM) or 24 h, without addition of LPS+PHA. and incubated for 24 hours with 5 mM H2O2 at 5% CO2 and 37° C. Cytokine production was measured as in Experiment 2. Results were expressed as the TNF-α/IL-10 ratio relative to the control condition (H2O2 without ATP).

In the case of `Nc1ncnc2c1ncn2[C@@H]1O[C@H](COP(=O)(O)OP(=O)(O)OP(=O)(O)O)[C@@H](O)[C@H]1O` [ATP, Adenosine 5′-triphosphate], the “patients spontaneously reporting beneficial effects” value ([1]; 8 infusions of 24 h) is given as 8 out of 9, the “patients noting these effects on the day after the first ATP infusion” value ([1]; human, in vivo) is given as 5 out of 9 and the life-threatening side effects [2] is given as “did not find any”. The “effect on LPS+PHA-induced IL-10 release” value (IL-10) was “significantly increased”, the “reduction in the TNF-α/IL-10 ratio” value (TNF-α/IL-10 ratio [3]; patient blood stimulated with LPS+PHA, depending on the patient) was 40-80% and the “reduction in the TNF-α/IL-10 ratio” value (TNF-α/IL-10 ratio [3]; patient blood without LPS+PHA) was 60-80%. For the same compound, the “effect on ratio of TNF-α/IL-10 release” value (TNF-α/IL-10 ratio [3]; patient blood, untreated and/or LPS+PHA-stimulated) was “markedly reduced”, the “effect on plasma levels of pro- or anti-inflammatory cytokines” value ([4]; Swennen et al. 2004) was “neither an effect” and the “loss of weight and muscle mass compared to a control group” value ([4]; regular infusions) was “inhibited”. The “reduction in the TNF-α/IL-10 ratio” value (TNF-α/IL-10 ratio [5]) was 90%.

From patent US20090215713A1, “Use of atp for the manufacture of a medicament for the prevention and treatment of oxidative stress and related conditions” (priority 2004, published 2009)
